Measured values from ChEMBL document CHEMBL3507680, “University of Dundee, Gates Library screen for HepG2 cell viability”.

Assay: Human HepG2 cell viability assay in 384 well format
Assay type: toxicity, cell-based
Set-up: dose 125 nL, time 70.5 hour; concentration not given beside the values
Settings: HepG2 cells, read-out: Inhibition

## CNC(=O)[C@H]1C[C@@H]2CN(C(=O)c3cnc(C)cn3)C[C@@H]2N1C
  cytotoxicity at 70.5 h: -8.55%

## CCOCC1CN(S(=O)(=O)CC)Cc2nn(C)cc21 (centres undefined)
  cytotoxicity at 70.5 h: -8.48%

## CCN1C[C@@H]2CN(C(=O)c3cccn3C)C[C@@H]2C1=O
  cytotoxicity at 70.5 h: 8.28%

## c1cnc(N2CCOCC3(CCN(c4cnccn4)CC3)C2)nc1
  cytotoxicity at 70.5 h: -8.75%

## COc1cc(F)ccc1CC(=O)N1CC[C@H]2C(=O)NCCO[C@H]2C1
  cytotoxicity at 70.5 h: 0.421%

## O=C(CC(F)(F)F)N1CCC2(CCCN(c3nncs3)C2)C1 (centres undefined)
  cytotoxicity at 70.5 h: -3.95%

## CN1Cc2ccccc2CC2(CCN(C(=O)[C@H]3CCCO3)CC2)C1=O
  cytotoxicity at 70.5 h: -4.74%

## COc1cc(N2CCC3(C2)CN(c2cccnc2)C(=O)CN3C)ncn1 (centres undefined)
  cytotoxicity at 70.5 h: -4.78%

## CSc1cccc(NC(=O)N2CCC3(CCC(=O)N(C4CC4)C3)CC2)c1
  cytotoxicity at 70.5 h: -9.9%

## Cc1ccccc1C1(O)CCN(C(=O)CCc2cn3ccccc3n2)C1 (centres undefined)
  cytotoxicity at 70.5 h: 17.9%

## c1cc(-c2cc(C3CCN(Cc4cncnc4)C3)ccn2)ccn1 (centres undefined)
  cytotoxicity at 70.5 h: 0.319%

## COc1cc(OC)cc(-n2ccnc2-c2cc3n(n2)CCNC3)c1
  cytotoxicity at 70.5 h: 19.3%

## CCN(CC)C(=O)Cn1cc(C(=O)NCCc2scnc2C)nn1
  cytotoxicity at 70.5 h: -1.44%

## CSc1ccccc1CN1CCn2nc(CNC(=O)N(C)C)cc2C1
  cytotoxicity at 70.5 h: -8.7%

## O=C1O[C@@H]2CN(c3ccccn3)C[C@@H]2N1CCCc1ccc(F)cc1
  cytotoxicity at 70.5 h: -14.3%

## CCc1ccc(CN(C)c2ccc(-c3nc(COC)no3)cn2)nc1
  cytotoxicity at 70.5 h: -4.59%

## CCCn1ncnc1C(C)NC(=O)C1CCN(C(=O)C2CC2)CC1 (centres undefined)
  cytotoxicity at 70.5 h: -3.95%

## COc1ccnc(N2C[C@@H]3CC[C@H](C2)N(CC2CCC2)C3=O)n1
  cytotoxicity at 70.5 h: -0.827%

## COCCc1nc(CSc2ccncc2)n(C)n1
  cytotoxicity at 70.5 h: 1.99%

## CC(C)n1cc(-c2nc3cc(S(=O)(=O)N4CCCC4)ccc3n2C)cn1
  cytotoxicity at 70.5 h: -25.1%

## Cc1nc2c(c(N(C)C)n1)CCN(C(=O)c1ccc(N)nc1)C2
  cytotoxicity at 70.5 h: -7.14%

## CCN(CCOC)C(=O)c1ccc2c(c1)nc(N1CC[C@H](O)C1)n2C
  cytotoxicity at 70.5 h: -8.67%

## CCc1ncc2c(n1)CN(c1nccc(C3CCCC3)n1)C2
  cytotoxicity at 70.5 h: -10.9%

## Cc1n[nH]c(C)c1Sc1ccccc1NC(=O)N1CCN(C)CC1
  cytotoxicity at 70.5 h: 50.2%

## CSCCC(=O)N1CCc2c(ncnc2N2CCOCC2)C1
  cytotoxicity at 70.5 h: -2.83%

## Cn1c(CN2CCN(c3cccnc3)CC2)cc2ccccc21
  cytotoxicity at 70.5 h: -4.28%

## Cc1nc(N(C)C)ncc1C(=O)NCCc1csc(-c2cnccn2)n1
  cytotoxicity at 70.5 h: -6.1%

## CSCCCN1C(=O)CC[C@H]2CN(Cc3ncc[nH]3)CC[C@H]21
  cytotoxicity at 70.5 h: -5.45%

## COc1cccc(C(C(=O)O)N2CCC(Cn3cccn3)CC2)c1OC (centres undefined)
  cytotoxicity at 70.5 h: -9.71%

## Cc1cnc(N2CCC(c3ccncc3)CC2)nc1-c1ccnn1C
  cytotoxicity at 70.5 h: -12.9%

## COc1ccccc1OC1CCN(c2ccncc2)CC1
  cytotoxicity at 70.5 h: 12.9%

## O=C(Cc1ccc(O)c(F)c1)N1CCC2(CCNCC2)CC1
  cytotoxicity at 70.5 h: -1.13%

## CCn1cc(CN2CCCC(COc3ccc(F)cc3)C2)cn1 (centres undefined)
  cytotoxicity at 70.5 h: 12.1%

## CCC(NC1CCN(C(=O)c2ccccc2)CC1)c1cccs1 (centres undefined)
  cytotoxicity at 70.5 h: -16.9%

## CN1CCC(n2nc(Cc3cccs3)nc2-c2ccncc2)CC1
  cytotoxicity at 70.5 h: 2.89%

## Cc1cc(C(=O)N2CCC3(CC2)c2nc[nH]c2CCN3CC(C)C)no1
  cytotoxicity at 70.5 h: 7%

## CN(C)C1CCCN(C(=O)c2cccc(-c3ncc[nH]3)c2)CC1 (centres undefined)
  cytotoxicity at 70.5 h: -1.63%

## CNC(=O)C1CCCN(c2nc(-c3ccco3)nc3c2CCNCC3)C1 (centres undefined)
  cytotoxicity at 70.5 h: -4.06%

## O=C(c1ccc2nccnc2c1)N1C[C@@H](CN2CCCC2)[C@@H](CO)C1
  cytotoxicity at 70.5 h: -5.28%

## CN1CCN(c2ncccn2)CC12CCC(=O)N(CC1CC1)CC2 (centres undefined)
  cytotoxicity at 70.5 h: 9.35%

## CN(Cc1ccoc1)C(=O)C1(Oc2ccc(Cl)cc2)CCNCC1
  cytotoxicity at 70.5 h: -6.31%

## CCC(=O)N1CCN(C(=O)c2cn3ccsc3n2)[C@H]2CS(=O)(=O)C[C@H]21
  cytotoxicity at 70.5 h: -13.8%

## CN1CC2(CCCN(C(=O)Cc3cccc(O)c3)C2)OC1=O (centres undefined)
  cytotoxicity at 70.5 h: -6.74%

## CC(C)N(C)C(=O)C1CCC(=O)N(CCc2cccc(F)c2)C1 (centres undefined)
  cytotoxicity at 70.5 h: -3.96%

## Cc1[nH]c(-c2ccccc2)nc1C(=O)N1CCC(O)(CO)CC1
  cytotoxicity at 70.5 h: 17.9%

## CCC1CC(=O)NCc2nc3sc(C)cn3c21 (centres undefined)
  cytotoxicity at 70.5 h: -4.35%

## CC(C)N(C)C(=O)c1coc(CN2CCN(c3ccccc3F)CC2)n1
  cytotoxicity at 70.5 h: -3.77%

## CC(C)Nc1ccnc(-c2ccnc3c2ccn3C)n1
  cytotoxicity at 70.5 h: -9.28%

## COCCN1CC(C(=O)N(C)Cc2cc(-c3cccnc3)no2)CC1=O (centres undefined)
  cytotoxicity at 70.5 h: -11.9%

## CCN(CC)C1CCN(c2ncnc3c2CCN(C(=O)C2CC2)C3)C1 (centres undefined)
  cytotoxicity at 70.5 h: -2.79%

## Cc1occc1C(=O)Nc1ccc(C(=O)NC[C@H]2CCCN2)cc1
  cytotoxicity at 70.5 h: 7%

## CCn1nc(CC(C)C)cc1C(=O)NCCCN1CCOCC1
  cytotoxicity at 70.5 h: -0.263%

## Cc1n[nH]c(SCC(=O)N[C@@H](C)C(N)=O)n1
  cytotoxicity at 70.5 h: 0.227%

## O=C(c1ccc(-c2nc[nH]n2)cc1)N1CC[C@H](CO)[C@@H](O)C1
  cytotoxicity at 70.5 h: -10.8%
